Calls of active or inactive are those of the source. The calls are words filed in the database; no cut-off is given here.
Key:
Format in all cases: functional, organism-based
Details in all cases: route top, time 7.0 day
Mus musculus [1] = experiment: Anti-inflammatory activity in BALB/c mouse model of IMQ-induced psoriasis assessed as reduction in PASI score at 100 mg administered topically as 0.005% ointment measured daily for 7 days by H and E staining based analysis
Mus musculus [2] = experiment: Anti-inflammatory activity in BALB/c mouse model of IMQ-induced psoriasis assessed as improvement in skin thickening at 100 mg administered topically as 0.005% ointment measured daily for 7 days by H and E staining based analysis
Mus musculus [3] = experiment: Anti-inflammatory activity in BALB/c mouse model of IMQ-induced psoriasis assessed as improvement in erythema at 100 mg administered topically as 0.005% ointment measured daily for 7 days by H and E staining based analysis

C=C1/C(=C\C=C2/CCC[C@]3(C)[C@@H]([C@H](C)/C=C/[C@@H](O)C4CC4)CC[C@@H]23)C[C@@H](O)C[C@@H]1O
Activity (Mus musculus [1]): Active
Activity (Mus musculus [2]): inactive
Activity (Mus musculus [3]): inactive
